Drawing on PMC12554177 (2025), this text covers binding, ΔTm and Tm increase for 3 compounds.

SMILES strings stand for the structures.

In assay [1] the test system is Duplex (DNA, duplex) CAATCGGATCGAATTCGATCCGATTG
Description: CD melting. Conditions: 2 mM K+ (KCl); 10 mM Tris-HCl pH 7.4, 50 µM drug, 5 µM DNA.

The test system of assay [2] is c-myc (DNA, G4) TGAGGGTGGGTAGGGTGGGTAA
Description: CD melting. Conditions: 2 mM K+ (KCl); 10 mM Tris-HCl pH 7.4, 50 µM drug, 5 µM DNA.

Assay [3] has as its system bcl2 (DNA, G4) AGGGGCGGGCGCGGGAGGAAGGGGGCGGA
As to the kind of experiment: CD melting. Conditions: 2 mM K+ (KCl); 10 mM Tris-HCl pH 7.4, 50 µM drug, 5 µM DNA.

The test system of assay [4] is c-kit (DNA, G4) CGGGCGGGCGCGAGGGAGGGG
Description: CD melting. Conditions: 2 mM K+ (KCl); 10 mM Tris-HCl pH 7.4, 50 µM drug, 5 µM DNA.

In assay [5] the test system is KRAS (DNA, G4) GGGAGGGAGGGAAGGAGGGAGGGAGGGA
As to the kind of experiment: CD melting. As to conditions: 2 mM K+ (KCl); 10 mM Tris-HCl pH 7.4, 50 µM drug, 5 µM DNA.

The subject of assay [6] is VEGF (DNA, G4) CCCGGGGCGGGCCGGGGGCGGGGTCCCGGCGGGGCGGAG
As to the kind of experiment: CD melting. Conditions: 2 mM K+ (KCl); 10 mM Tris-HCl pH 7.4, 50 µM drug, 5 µM DNA.

For assay [7], the system named is labeled c-myc (DNA, G4) TGAGGGTGGGTAGGGTGGGTAA
As to the kind of experiment: FRET melting. Conditions: 2 mM K+ (KCl); 2 µM HCQ, ~25 nM DNA.

The test system of assay [8] is c-myc (DNA, G4) TGAGGGTGGGTAGGGTGGGTAA
As to the kind of experiment: 1H NMR imino titration. Conditions: 2 mM K+ (KCl), 100 µM DNA, H2O/D2O 90/10, 25 °C.

In the case of `CCN(CC)CCCC(C)Nc1ccnc2cc(Cl)ccc12` (stereo not shown), the binding result in assay [1] is “no”.
As to `CCN(CCO)CCCC(C)Nc1ccnc2cc(Cl)ccc12` (stereo not shown), the ΔTm (as a rule, the change in melting temperature against a reference sample) is ~ 17 °C in assay [2]; 7 °C in assay [3]; 11 °C in assay [4]; 12 °C in assay [5]; 9 °C in assay [6]. The figures for the binding result in assay [1] and in assay [8] (5' end stacking) were “no” and “yes”, respectively. For the same compound, the Tm increase in assay [7] is ~ 12 °C.
With `Nc1ccnc2cc(Cl)ccc12`, the binding entry in assay [8] is “yes”.
